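Results reflect a 48-hour exposure of cells in 96-well plates to compound at five concentrations. Abbreviation: GI50, concentration required for 50% inhibition of growth. TGI marks complete inhibition of growth.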
Legend:
Assay in all cases: growth of human tumour cells (NCI), 48 h
HOP-92 NSCLC = system: HOP-92 NSCLC
EKVX NSCLC = system: EKVX NSCLC
CCRF-CEM leukemia = system: CCRF-CEM leukemia
ACHN renal = system: ACHN renal
HCC-2998 colon = system: HCC-2998 colon
SK-OV-3 ovarian = system: SK-OV-3 ovarian
UO-31 renal = system: UO-31 renal
LOX IMVI melanoma = system: LOX IMVI melanoma
U251 CNS = system: U251 CNS
TK-10 renal = system: TK-10 renal

| Compound | GI50 (HOP-92 NSCLC) | TGI (HOP-92 NSCLC) | GI50 (EKVX NSCLC) | TGI (EKVX NSCLC) | GI50 (CCRF-CEM leukemia) | TGI (CCRF-CEM leukemia) | GI50 (ACHN renal) | TGI (ACHN renal) | GI50 (HCC-2998 colon) | TGI (HCC-2998 colon) | GI50 (SK-OV-3 ovarian) | TGI (SK-OV-3 ovarian) | GI50 (UO-31 renal) | TGI (UO-31 renal) | GI50 (LOX IMVI melanoma) | TGI (LOX IMVI melanoma) | GI50 (U251 CNS) | TGI (U251 CNS) | GI50 (TK-10 renal) | TGI (TK-10 renal) |
| --- | --- | --- | --- | --- | --- | --- | --- | --- | --- | --- | --- | --- | --- | --- | --- | --- | --- | --- | --- | --- |
| COc1ccc(/C=C/C(=O)c2cc3c(N)c(C(=O)Nc4ccccc4C)sc3nc2C)cc1 | 0.6 µM | 32.3 µM | 1.88 µM | > 50 µM | 0.475 µM | > 50 µM | 0.36 µM | > 50 µM | 1.09 µM | 3.61 µM | 0.605 µM | > 50 µM | 0.861 µM | > 50 µM | 0.768 µM | 5.21 µM | 1.4 µM | > 50 µM | 2.48 µM | > 50 µM |
| O=C1c2ccn(CCCCN3CCCCC3)c2C(=O)c2c1c(O)c1ccccc1c2O | 3.68 µM | 22.9 µM | 15.2 µM | 36.1 µM | 1.95 µM | 4.61 µM | 18.7 µM | 38.5 µM | 2.95 µM | 9.98 µM | 15.8 µM | 43.4 µM | 20.9 µM | > 100 µM | 1.72 µM | 4.3 µM | 6.16 µM | – | 13.6 µM | 27.9 µM |
| COc1cc(NCc2ccccc2O)c2ncccc2c1 | 3.83 µM | 30.3 µM | 19 µM | 80.8 µM | 17 µM | > 100 µM | 26.8 µM | > 100 µM | 42.6 µM | > 100 µM | 20.2 µM | 50 µM | 7.17 µM | 75.8 µM | 17.1 µM | 67.3 µM | 23.7 µM | > 100 µM | 26.5 µM | > 100 µM |
| Cc1cccc(C)c1NC(=O)CCC(=O)NC(N)=S | – | > 100 µM | – | > 100 µM | – | > 100 µM | – | > 100 µM | – | > 100 µM | – | > 100 µM | – | > 100 µM | – | > 100 µM | – | > 100 µM | – | > 100 µM |
| O=[N+]([O-])[O-].O=[N+]([O-])[O-].[Au].[Au].c1ccc([P-]c2ccccc2)cc1.c1ccc([P-]c2ccccc2)cc1 | 26.6 µM | 51.5 µM | 33.4 µM | 63 µM | 18.8 µM | > 100 µM | 17 µM | 33.9 µM | 71.8 µM | > 100 µM | > 100 µM | > 100 µM | 25.9 µM | 47.5 µM | 35.3 µM | > 100 µM | 36.6 µM | > 100 µM | 23.3 µM | 53.6 µM |
| CC(C)(C)[Si](C)(C)OCC1C=CC(n2cnc3c(N)ncnc32)O1 (centres undefined) | – | 38.1 µM | – | > 100 µM | – | 39.8 µM | – | > 100 µM | – | > 100 µM | – | > 100 µM | – | > 100 µM | – | > 64 µM | – | 72.3 µM | – | > 100 µM |
| COc1ccc(Cl)cc1NC(=O)c1cccc([N+](=O)[O-])c1O | – | 16.6 µM | – | 51.4 µM | – | > 100 µM | – | > 70.4 µM | – | 62.1 µM | – | > 77.9 µM | – | 39.8 µM | – | > 84.2 µM | – | > 62.7 µM | – | > 100 µM |
